Data: the OligoGym collection
Bases are written 5' to 3'; sugars and linkages follow in the same order, as letters with counts (s phosphorothioate, o phosphodiester; PS: all linkages phosphorothioate). The collection does not say whether C is 5-methylated. l = locked nucleic acid (LNA); d = 2'-deoxy (DNA)

What follows are sequences tested against Tau (assay: rat primary cortical neurons, FLIPR, 25 uM ASO).

| Sequence | calcium oscillation score |
| --- | --- |
| ACCCTTAGACATAACA (sugars l4 d10 l2, PS) | 75.1 % of control |
| ACCACACACTCTGATAC (sugars l4 d11 l2, PS) | 69 % of control |
| GGCCACCTCCTGGTTTATGA (sugars l3 d14 l3, PS) | 0 % of control |
| CCAGTTACCATCATACA (sugars l2 d12 l3, PS) | 91.8 % of control |
| TCCTAATTCCCAAATTCCTC (sugars l2 d15 l3, PS) | 76.6 % of control |
| CCTCCCACCTATCAGTCA (sugars l1 d15 l2, PS) | 46.2 % of control |
| AATCCTGTGCTTCAG (sugars l3 d9 l3, PS) | 57.5 % of control |
| CTTTATTTCCAAATTCACT (sugars l4 d10 l5, PS) | 108 % of control |
| ATTTCCAAATTCACTTTTAC (sugars lldllddddddddddlldll, PS) | 85.2 % of control |
| TTCACTTAGTAACCAA (sugars l4 d8 l4, PS) | 62 % of control |
| TCCCTTAATTTCACC (sugars l3 d9 l3, PS) | 80.5 % of control |
| CGCGGAAGGTCAGCTTGTGG (sugars l3 d14 l3, PS) | 0 % of control |
| TAGGAGAGGAAGGTGG (sugars l3 d10 l3, PS) | 3.7 % of control |
| CACCCACTTTCCTAATTCC (sugars l1 d16 l2, PS) | 60.9 % of control |
| CCAACTCTTTGAACACC (sugars l3 d12 l2, PS) | 75.5 % of control |
| TTAACTCATCAACACCTTT (sugars l3 d12 l4, PS) | 84 % of control |
| TTCCTGGCCATCTTATGCTG (sugars l3 d14 l3, PS) | 22 % of control |
| TCTTAGCATCAGAGGTTTCA (sugars l3 d14 l3, PS) | 18.5 % of control |
| TATCCTTTGAGCCACACTTG (sugars l3 d14 l3, PS) | 11.7 % of control |
| CTTTATTTCCAAATTCACT (sugars l5 d9 l1 d2 l2, PS) | 104 % of control |
| CCAACTCAACATTACCCTT (sugars l2 d15 l2, PS) | 66.3 % of control |
| TTTCTCTAATTGTCCAA (sugars l4 d9 l4, PS) | 56.6 % of control |
| CCTGAAACACCTTTTTCC (sugars l2 d14 l2, PS) | 71.1 % of control |
| AGTCTACCATGTCGATGCTG (sugars l3 d14 l3, PS) | 71.2 % of control |
| AGCTGGGTGGTGTCTTTGGA (sugars l3 d14 l3, PS) | 0 % of control |
| ACCACATTATCATCCATTC (sugars l2 d14 l3, PS) | 51.9 % of control |

| Sequence | calcium oscillation score |
| --- | --- |
| GGTTGGATCAGAGGGT (sugars l3 d10 l3, PS) | 7.41 % of control |
| CTGGACGTTGCTAAGA (sugars l3 d10 l3, PS) | 0 % of control |
| TGCCCATTCAAAATCTT (sugars l3 d11 l3, PS) | 74.3 % of control |
| CCTTTTTCCATCTTACTAAT (sugars l3 d14 l3, PS) | 54.7 % of control |
| CATTTTACTAAAACGC (sugars l4 d8 l4, PS) | 91.6 % of control |
| TGCTCAGCTAAGACCCTCAG (sugars l3 d14 l3, PS) | 29.4 % of control |
| CTAATTCCCAAATTCCTCAT (sugars l3 d14 l3, PS) | 60.9 % of control |
| ACACTGTCCTTTAAACA (sugars l4 d10 l3, PS) | 68.1 % of control |
| GGCGGCGCAGGCGCGA (sugars l3 d10 l3, PS) | 49.6 % of control |
| GAAGGTCAGCTTGTGG (sugars l3 d10 l3, PS) | 11.4 % of control |
| AGATCATCCATTTTCTT (sugars l2 d11 l4, PS) | 55.3 % of control |
| CATAGTCACTCTGGTG (sugars l3 d10 l3, PS) | 1.9 % of control |
| CCTTTTTATTTCCTCCGC (sugars l3 d13 l2, PS) | 40.1 % of control |
| CAAGAGGCACAAGTC (sugars l3 d9 l3, PS) | 112 % of control |
| TTCTTTTTTTTTCCACACTC (sugars l3 d15 l2, PS) | 27.4 % of control |
| CCCACATAAACTCCTT (sugars l3 d10 l3, PS) | 53.4 % of control |
| TCAGGTCAACTGGTTT (sugars l3 d10 l3, PS) | 95.9 % of control |
| ACTGGTTAGCCCTAAA (sugars l3 d10 l3, PS) | 3.83 % of control |
| ACCCATCTTAATTCATTTAA (sugars l3 d14 l3, PS) | 96.1 % of control |
| GCAGGCGCGAGCAG (sugars l3 d8 l3, PS) | 40.6 % of control |
| TAATCCTACCACCAGA (sugars l2 d10 l4, PS) | 86 % of control |
| CTAAGCACTTTACCCATC (sugars l3 d13 l2, PS) | 97.6 % of control |
| ACCTGGCCACCTCCTG (sugars l3 d10 l3, PS) | 28.6 % of control |
| AATAAGAAAGGAACGC (sugars l4 d9 l3, PS) | 102 % of control |
| AATTAAATTTCTCCCTG (sugars l4 d9 l4, PS) | 34.1 % of control |
| CCAAACTTTTACTCTGA (sugars l4 d10 l3, PS) | 44.5 % of control |

| Sequence | calcium oscillation score |
| --- | --- |
| TCAATTCTCATTTCAACCTT (sugars l2 d15 l3, PS) | 70.7 % of control |
| CAGCCACTGTTGCCAC (sugars l2 d12 l2, PS) | 51.2 % of control |
| TTCCCACAATTCCTACA (sugars l3 d12 l2, PS) | 73.4 % of control |
| GCGAGTCTACCATGTCGATG (sugars l3 d14 l3, PS) | 0 % of control |
| ACCTCATTAAGATCACC (sugars l2 d11 l4, PS) | 69.7 % of control |
| GATCTTAGGCTGGCCC (sugars l3 d10 l3, PS) | 90.7 % of control |
| CAACAATCCAACCACTAAA (sugars l4 d11 l4, PS) | 89.8 % of control |
| AAGAGGCACAAGTCCT (sugars l3 d10 l3, PS) | 81.6 % of control |
| GCTTTCCAATTCCCCA (sugars l2 d12 l2, PS) | 101 % of control |
| ACCCATCAATTTGGAAAGAT (sugars l3 d14 l3, PS) | 72.6 % of control |
| ACTCTTAGCATCCACTT (sugars l4 d11 l2, PS) | 40.6 % of control |
| AATTCATAAATGACTATACT (sugars l3 d14 l3, PS) | 40.3 % of control |
| TTATTTCCAAATTCACTTTT (sugars llddlldddddddddldlll, PS) | 123 % of control |
| CTTAATTCATTTAATTCTCT (sugars l3 d13 l4, PS) | 90.1 % of control |
| TTTGAAGTCCCGAGCC (sugars l3 d10 l3, PS) | 22.4 % of control |
| TTTTTTAACTCCCAACTC (sugars l4 d10 l4, PS) | 95.2 % of control |
| GCGACTTGTACACGATCTCC (sugars l3 d14 l3, PS) | 7.77 % of control |
| TTCATGTTAAATCCCTC (sugars l4 d10 l3, PS) | 103 % of control |
| ACTTTATTTCCAAATTCACTTTTAC (sugars llddldddddddddddddddllddl, PS) | 17.7 % of control |
| CCCGGAACTCTCAACTCCTC (sugars l3 d14 l3, PS) | 18.1 % of control |
| TGCTTACACACCACACAC (sugars l2 d13 l3, PS) | 60.7 % of control |
| CGTCCCAGCGTGATCTTCCA (sugars ldlllddddddddddlldll, PS) | 38.3 % of control |
| CCAGCAGCTTCGTCTTCCAG (sugars l3 d14 l3, PS) | 36.1 % of control |
| CCTTACCACTTTCAGG (sugars l3 d10 l3, PS) | 111 % of control |
| AATTCACACAACAAACTAT (sugars l4 d11 l4, PS) | 74.5 % of control |
